From ChEMBL document CHEMBL1142923, “Novel chiral isoxazole derivatives: synthesis and pharmacological characterization at human beta-adrenergic receptor subtypes” (Bioorg Med Chem, 2007)

Key:
[1] = molecular target: T1, Beta-3 adrenergic receptor (Homo sapiens, UniProt P13945); assay: Efficacy at human adrenergic beta 3 receptor transfected in CHO cells assessed as stimulation of adenylyl cyclase at 100 uM relative to isoproterenol; type: functional, cell-based
Target sequence in this assay (P13945 whole entry, looked up): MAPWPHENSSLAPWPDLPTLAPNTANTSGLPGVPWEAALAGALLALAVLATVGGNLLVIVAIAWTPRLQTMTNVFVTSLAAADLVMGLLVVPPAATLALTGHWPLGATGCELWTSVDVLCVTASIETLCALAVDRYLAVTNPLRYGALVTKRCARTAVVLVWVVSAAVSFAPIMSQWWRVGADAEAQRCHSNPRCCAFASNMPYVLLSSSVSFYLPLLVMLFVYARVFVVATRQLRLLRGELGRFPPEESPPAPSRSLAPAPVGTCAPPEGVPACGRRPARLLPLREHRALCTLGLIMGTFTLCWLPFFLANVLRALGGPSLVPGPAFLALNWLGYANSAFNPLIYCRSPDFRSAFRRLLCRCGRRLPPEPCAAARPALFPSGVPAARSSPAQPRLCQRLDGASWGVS

[2] = molecular target: Beta-1 adrenergic receptor (Homo sapiens, UniProt P08588); assay: Displacement of [125I]CYP from human adrenergic beta 1 receptor transfected in CHO cells in presence of 100 uM GTP; type: cell-based
Beta-1 adrenergic receptor, sequence (P08588 whole entry): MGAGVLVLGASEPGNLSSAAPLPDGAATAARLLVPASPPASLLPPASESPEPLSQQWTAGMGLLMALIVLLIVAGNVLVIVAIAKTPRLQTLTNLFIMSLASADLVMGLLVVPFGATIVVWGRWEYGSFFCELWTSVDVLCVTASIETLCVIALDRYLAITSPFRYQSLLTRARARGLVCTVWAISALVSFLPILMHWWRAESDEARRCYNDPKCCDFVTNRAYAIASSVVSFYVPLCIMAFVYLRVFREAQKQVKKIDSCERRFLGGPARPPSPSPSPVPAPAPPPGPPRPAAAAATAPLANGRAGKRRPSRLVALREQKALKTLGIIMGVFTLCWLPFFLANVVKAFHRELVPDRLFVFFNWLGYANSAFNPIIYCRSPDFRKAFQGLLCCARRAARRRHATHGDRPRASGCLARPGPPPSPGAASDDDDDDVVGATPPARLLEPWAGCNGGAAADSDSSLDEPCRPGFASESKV

[3] = molecular target: T1, Beta-3 adrenergic receptor; assay: Displacement of [125I]CYP from human adrenergic beta 3 receptor transfected in CHO cells in presence of 100 uM GTP; type: cell-based
Target sequence in this assay (P13945 whole entry): as the sequence (P13945 whole entry, looked up) above

[4] = molecular target: Beta-2 adrenergic receptor (Homo sapiens, UniProt P07550); assay: Displacement of [125I]CYP from human adrenergic beta 2 receptor transfected in CHO cells in presence of 100 uM GTP; type: cell-based
Beta-2 adrenergic receptor, sequence (P07550 whole entry): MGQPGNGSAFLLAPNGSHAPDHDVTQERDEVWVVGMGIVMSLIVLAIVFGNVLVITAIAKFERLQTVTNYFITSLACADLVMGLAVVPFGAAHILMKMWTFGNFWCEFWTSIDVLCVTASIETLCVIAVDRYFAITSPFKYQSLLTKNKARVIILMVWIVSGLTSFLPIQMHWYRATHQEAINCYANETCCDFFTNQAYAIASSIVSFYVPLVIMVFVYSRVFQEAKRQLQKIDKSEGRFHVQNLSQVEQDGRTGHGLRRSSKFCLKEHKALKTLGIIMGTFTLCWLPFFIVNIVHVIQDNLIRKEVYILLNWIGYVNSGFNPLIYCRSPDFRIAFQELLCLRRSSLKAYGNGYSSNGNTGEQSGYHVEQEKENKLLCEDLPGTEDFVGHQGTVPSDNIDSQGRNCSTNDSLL

SMILES: CCCCOc1ccc(C[C@@H](C)NC[C@@H](O)c2cc(Br)no2)cc1
- Efficacy [1]: 31%
- Ki [2]: 2.16 µM
- Ki [3]: 10.7 µM
- Ki [4]: 0.458 µM

SMILES: C[C@H](Cc1ccc(OCC(=O)O)cc1)NC[C@H](O)c1cccc(Cl)c1 (racemic)
- Ki [4]: 2.85 µM

SMILES: C[C@H](Cc1ccc(OCC(=O)O)cc1)NC[C@@H](O)c1cc(Br)no1
- Efficacy [1]: 34%
- Ki [2]: 6.46 µM
- Ki [3]: > 50 µM
- Ki [4]: 0.501 µM

SMILES: CCOC(=O)COc1ccc(C[C@@H](C)NC[C@H](O)c2cc(Br)no2)cc1
- Efficacy [1]: 56%
- Ki [2]: 0.0232 µM
- Ki [3]: 10.1 µM
- Ki [4]: 0.00282 µM

SMILES: CC(C)(C)NCC(O)c1cc(NS(C)(=O)=O)no1 (racemic)
- Ki [2]: > 100 µM
- Ki [3]: > 100 µM
- Ki [4]: > 100 µM

SMILES: CCCCOc1ccc(C[C@@H](C)NC[C@H](O)c2cc(Br)no2)cc1
- Efficacy [1]: 51%
- Ki [2]: 0.0667 µM
- Ki [3]: 2.49 µM
- Ki [4]: 0.0155 µM

SMILES: CCOC(=O)COc1ccc(C[C@@H](C)NC[C@@H](O)c2cc(Br)no2)cc1
- Efficacy [1]: 39%
- Ki [2]: 1.11 µM
- Ki [3]: 21.8 µM
- Ki [4]: 0.0814 µM

SMILES: C[C@H](Cc1ccc(OCC(=O)O)cc1)NC[C@H](O)c1cc(Br)no1
- Efficacy [1]: 50%
- Ki [2]: 0.0611 µM
- Ki [3]: 22 µM
- Ki [4]: 0.0139 µM
